Holding throughout (type): functional
The subject of one assay is SK-MEL-2. Briefly: Growth inhibition of human SK-MEL-2 cells at 10^-5 M incubated for 48 hrs by sulforhodamine B assay. Conditions: SK-MEL-2, 48 h, read-out: GI. On the technique in general: Sulforhodamine B stains cellular protein and so reports cell mass.
The subject of a further assay is MOLT-4. Description: Growth inhibition of human MOLT4 cells at 10^-5 M incubated for 48 hrs by sulforhodamine B assay. To be noted: MOLT-4, 48 h, read-out: GI.
Another assay relates to SK-MEL-28. Description: Growth inhibition of human SK-MEL-28 cells at 10^-5 M incubated for 48 hrs by sulforhodamine B assay. Conditions: SK-MEL-28, 48 h, read-out: GI.
Another assay has as its system NCI-H522. Description: Growth inhibition of human NCI-H522 cells at 10^-5 M incubated for 48 hrs by sulforhodamine B assay. Conditions: NCI-H522, 48 h, read-out: GI.
The subject of another assay is SF-539. Briefly: Growth inhibition of human SF539 cells at 10^-5 M incubated for 48 hrs by sulforhodamine B assay. To be noted: SF-539, 48 h, read-out: GI.
The test system of a further assay is T47D. Description: Growth inhibition of human T47D cells at 10^-5 M incubated for 48 hrs by sulforhodamine B assay. To be noted: read-out: GI.
For a further assay, the system named is HL-60(TB). Briefly: Growth inhibition of human HL-60(TB) cells at 10^-5 M incubated for 48 hrs by sulforhodamine B assay. Conditions: HL-60, 48 h, read-out: GI.
The test system of a further assay is HCT-116. Description: Growth inhibition of human HCT116 cells at 10^-5 M incubated for 48 hrs by sulforhodamine B assay. To be noted: HCT-116, 48 h, read-out: GI.
The next assay has as its system 786-0. Description: Growth inhibition of human 786-0 cells at 10^-5 M incubated for 48 hrs by sulforhodamine B assay. Conditions: 786-0, 48 h, read-out: GI.
A further assay deals with HOP-62. Description: Growth inhibition of human HOP62 cells at 10^-5 M incubated for 48 hrs by sulforhodamine B assay. Conditions: HOP-62, 48 h, read-out: GI.
The test system of a further assay is HCT-15. Briefly: Growth inhibition of human HCT15 cells at 10^-5 M incubated for 48 hrs by sulforhodamine B assay. To be noted: HCT-15, 48 h, read-out: GI.
For another assay, the system named is SNB-19. Briefly: Growth inhibition of human SNB19 cells at 10^-5 M incubated for 48 hrs by sulforhodamine B assay. Conditions: SNB-19, 48 h, read-out: GI.
The next assay concerns LOX IMVI. Description: Growth inhibition of human LOXIMVI cells at 10^-5 M incubated for 48 hrs by sulforhodamine B assay. Conditions: read-out: GI.
Another assay has as its system MDA-MB-435. Description: Growth inhibition of human MDA-MB-435 cells at 10^-5 M incubated for 48 hrs by sulforhodamine B assay. Conditions: MDA-MB-435, 48 h, read-out: GI.
The subject of the next assay is UO-31. Description: Growth inhibition of human UO31 cells at 10^-5 M incubated for 48 hrs by sulforhodamine B assay. Conditions: UO-31, 48 h, read-out: GI.
A further assay concerns SF-295. Description: Growth inhibition of human SF295 cells at 10^-5 M incubated for 48 hrs by sulforhodamine B assay. Conditions: SF-295, 48 h, read-out: GI.
A further assay has as its system CCRF-CEM. Description: Growth inhibition of human CCRF-CEM cells at 10^-5 M incubated for 48 hrs by sulforhodamine B assay. To be noted: read-out: GI.
In the next assay the test system is KM12. Briefly: Growth inhibition of human KM12 cells at 10^-5 M incubated for 48 hrs by sulforhodamine B assay. Conditions: KM12, 48 h, read-out: GI.
Another assay concerns OVCAR-4. Briefly: Growth inhibition of human OVCAR4 cells at 10^-5 M incubated for 48 hrs by sulforhodamine B assay. To be noted: OVCAR-4, 48 h, read-out: GI.
Another assay relates to NCI-H460. Briefly: Growth inhibition of human NCI-H460 cells at 10^-5 M incubated for 48 hrs by sulforhodamine B assay. To be noted: NCI-H460, 48 h, read-out: GI.

The structures appear in SMILES notation.

On to `S=C1Nc2c(sc3ccc(Cl)cc23)C(c2cccc(Br)c2)N1` (stereo not given), for which the inhibition of growth at 10 µM is -6.36% in the assay on SK-MEL-2; 11.5% with MOLT-4; -15.7% in the assay on SK-MEL-28; 12% in the assay on NCI-H522; 1% in the assay on SF-539; 24.5% in the assay on T47D. The inhibition of growth at 10 µM with HL-60(TB) was -6.42%; in the assay with HCT-116, 10.9%; with 786-0 it was -0.33%; in the assay with HOP-62, 15.5%; in the assay on HCT-15, 0.95%; in the assay with SNB-19, 2.38%. Further, the inhibition of growth at 10 µM in the assay with LOX IMVI was -0.61%; with MDA-MB-435, -2.42%; in the assay with UO-31 it was -18.3%; in the assay with SF-295 it was 1%; in the assay with CCRF-CEM it was -16.1%; with KM12, -2.38%. The inhibition of growth at 10 µM in the assay on OVCAR-4 amounted to 8.7%; with NCI-H460, 7.39%.

For `O=C1CC(=O)N(C2=Nc3c(sc4ccc(Cl)cc34)C(c3cccc([N+](=O)[O-])c3)N2)N1` (stereo not given), the inhibition of growth at 10 µM in the assay on SK-MEL-2 is -3.18%; with MOLT-4, -4.64%; in the assay with SK-MEL-28, -19.8%; in the assay on NCI-H522, 9.63%; in the assay with SF-539, 4.39%; with T47D it was 20.9%. Moreover, the inhibition of growth at 10 µM in the assay with HL-60(TB) is -8%; in the assay on HCT-116, 0.7%; in the assay on 786-0, -4.83%; in the assay with HOP-62, 9.64%; in the assay on HCT-15, -3.4%; in the assay with SNB-19, -9.31%. In addition, the inhibition of growth at 10 µM with LOX IMVI was 2.94%; in the assay on MDA-MB-435, -10.2%; in the assay on UO-31, 38%; in the assay with SF-295 it was 0.3%; with CCRF-CEM, -32.1%; in the assay with KM12, -3.57%. Further, the inhibition of growth at 10 µM is -11.5% in the assay with OVCAR-4 and 2.81% with NCI-H460.

Turning to `O=C1/C(=C\c2cccc([N+](=O)[O-])c2)Sc2ccc(Cl)cc21`, the inhibition of growth at 10 µM in the assay on SK-MEL-2 was 12.4%; in the assay with MOLT-4 it was 2.66%; in the assay on SK-MEL-28, -11.7%; with NCI-H522 it was 25.8%; in the assay on SF-539, -3.16%; with T47D, 13.1%. For the same compound, the inhibition of growth at 10 µM in the assay with HL-60(TB) was -10.8%; with HCT-116, 45.9%; in the assay on 786-0 it was -1.44%; in the assay with HOP-62, -0.47%; in the assay with HCT-15 it was 6.13%; in the assay on SNB-19 it was -6.12%. The inhibition of growth at 10 µM in the assay on LOX IMVI was 8.68%; in the assay with MDA-MB-435, 35.4%; in the assay on UO-31, 11.3%; in the assay on SF-295, -3.16%; in the assay with CCRF-CEM it was -0.32%; in the assay on KM12, -2.29%. In addition, the figures for the inhibition of growth at 10 µM with OVCAR-4 and with NCI-H460 were 21.4% and -5.14%, respectively.

For `O=C1Nc2c(sc3ccc(Cl)cc23)C(c2ccccc2O)N1` (stereo not given), the inhibition of growth at 10 µM is 2.38% in the assay on SK-MEL-2; 14.7% in the assay on MOLT-4; -7.33% in the assay on SK-MEL-28; 16% with NCI-H522; 3.22% in the assay on SF-539; 18.1% with T47D. The inhibition of growth at 10 µM was determined as 1.61% in the assay on HL-60(TB); 4.28% with HCT-116; 1.65% in the assay with 786-0; 13.9% in the assay with HOP-62; 2% in the assay on HCT-15; 2.91% in the assay with SNB-19. Moreover, the inhibition of growth at 10 µM was -0.62% with LOX IMVI; -3.03% in the assay on MDA-MB-435; -18.6% in the assay with UO-31; 3.22% in the assay on SF-295; -4.19% with CCRF-CEM; -2.4% with KM12. Also, the values for the inhibition of growth at 10 µM with OVCAR-4 and in the assay with NCI-H460 were 9.71% and 6.65%, respectively.

On to `O=C1Nc2c(sc3ccc(Cl)cc23)C(c2cccc(Br)c2)N1` (stereo not given), for which the inhibition of growth at 10 µM with SK-MEL-2 was -9.69%; with MOLT-4, 5.84%; in the assay on SK-MEL-28, -12.8%; with NCI-H522, -0.2%; with SF-539 it was -0.96%; with T47D it was 13%. Besides, the inhibition of growth at 10 µM in the assay with HL-60(TB) is 7.88%; in the assay with HCT-116, 4.12%; with 786-0, -1.2%; in the assay with HOP-62 it was 22.2%; in the assay with HCT-15 it was -0.85%; in the assay on SNB-19 it was 0.22%. Moreover, the inhibition of growth at 10 µM in the assay with LOX IMVI was -3.37%; in the assay with MDA-MB-435 it was -5.37%; with UO-31, -23.4%; in the assay with SF-295 it was -0.96%; in the assay with CCRF-CEM, -14.4%; in the assay on KM12, -0.31%. Moreover, the inhibition of growth at 10 µM was -6.24% in the assay with OVCAR-4 and -0.32% in the assay on NCI-H460.

Turning to `N=C1Nc2c(sc3ccc(Cl)cc23)C(c2cccc(Br)c2)N1` (stereo not given), the inhibition of growth at 10 µM is -8.11% in the assay on SK-MEL-2; 7.81% in the assay with MOLT-4; -17.9% in the assay with SK-MEL-28; 12.2% in the assay with NCI-H522; -8.29% in the assay with SF-539; 11.3% in the assay with T47D. Moreover, the inhibition of growth at 10 µM in the assay on HL-60(TB) is -2.27%; in the assay on HCT-116 it was 3.22%; with 786-0 it was 5.21%; with HOP-62, 8.49%; with HCT-15, -3.08%; with SNB-19 it was 2.72%. Also, the inhibition of growth at 10 µM was 1.33% in the assay with LOX IMVI; 1.88% with MDA-MB-435; 38.3% in the assay with UO-31; -3.08% with SF-295; -20.7% with CCRF-CEM; 6.3% in the assay on KM12. Also, the inhibition of growth at 10 µM in the assay on OVCAR-4 was found to be 6.46%; with NCI-H460, 1.37%.

Turning to `O=C1Nc2c(sc3ccc(Cl)cc23)C(c2ccc3ccccc3c2)N1` (stereo not given), the inhibition of growth at 10 µM in the assay on SK-MEL-2 is 0.12%; in the assay on MOLT-4, 12.9%; in the assay with SK-MEL-28, 3.5%; in the assay on NCI-H522 it was 11.9%; in the assay with SF-539, 3.67%; with T47D, 24.2%. Also, the inhibition of growth at 10 µM was 5.39% in the assay with HL-60(TB); -4.42% in the assay on HCT-116; 6.06% in the assay on 786-0; 13.9% in the assay with HOP-62; 1.48% with HCT-15; 2.49% in the assay with SNB-19. The inhibition of growth at 10 µM was -0.62% with LOX IMVI; -8.72% in the assay on MDA-MB-435; 37.4% in the assay on UO-31; 2.29% in the assay with SF-295; -13.3% in the assay with CCRF-CEM; -4.05% in the assay with KM12. For the same compound, the inhibition of growth at 10 µM is 3.19% in the assay on OVCAR-4 and 2.77% in the assay on NCI-H460.
